Laboratory results: patent publication US20240382629A1, “HETEROBIVALENT AND HOMOBIVALENT AGENTS TARGETING FIBROBLAST ACTIVATION PROTEIN ALPHA AND/OR PROSTATE-SPECIFIC MEMBRANE ANTIGEN” (The Johns Hopkins University, priority 2021, published 2024)
Where two headings read alike, the source gives them in different places.

Key:
FAP = FAP (Homo sapiens (Human), UniProt Q12884); experiment: FAP inhibition assay (recombinant enzyme, Z-Gly-Pro-AMC substrate); assay type: biochemical
Protocol: (§1) PSMA binding affinities of the compounds were determined using a competitive inhibition assay as previously reported. […] FAP, prolyl endopeptidase (PREP), and […] (DPPIV) inhibition assays: Recombinant enzymes (FAP, PREP, DPPIV) were purchased from R&D Systems (Minneapolis, MN). […] Z-Gly-Pro-AMC was used as a substrate for FAP and PREP. H-Gly-Pro-AMC was used as a substrate for DPPIV. The recombinant enzyme (0.4 μg/mL) was incubated with varying amounts of the test articles in the presence of the designated substrate (80 μM) for 10 min at room temperature. Fluorescence intensity was measured with 380 nm excitation and 460 nm emission using the Cytation 5 Cell Imaging Multi-Mode Reader (BioTek, Winooski, VT). IC50 and Ki values were obtained using a sigmoidal dose-response function.

PSMA = PSMA (Homo sapiens (Human), UniProt Q04609); experiment: PSMA competitive inhibition assay (NAAG substrate, LNCaP cell lysate); assay type: biochemical
Protocol: as §1

FAP+ HT-1080 tumors = experiment: Small animal PET/CT of ^68Ga-labeled SB-FAP-01 in FAP+ HT-1080 and wild type tumors; assay type: in vivo; settings: 60 minutes after intravenous administration
Protocol: Small animal PET/CT imaging was performed at 60 minutes after intravenous administration to this mirroring experimental model; and […]

PREP = PREP (Homo sapiens (Human), UniProt P48147); experiment: PREP inhibition assay (recombinant enzyme, Z-Gly-Pro-AMC substrate); assay type: biochemical; settings: Table 4
Protocol: as §1

DPPIV = DPPIV (Homo sapiens (Human), UniProt P27487); experiment: DPPIV inhibition assay (recombinant enzyme, H-Gly-Pro-AMC substrate); assay type: biochemical; settings: Table 4; read-out: DPPIV IC50
Protocol: as §1

Chain of PSMA (Q04609 whole entry): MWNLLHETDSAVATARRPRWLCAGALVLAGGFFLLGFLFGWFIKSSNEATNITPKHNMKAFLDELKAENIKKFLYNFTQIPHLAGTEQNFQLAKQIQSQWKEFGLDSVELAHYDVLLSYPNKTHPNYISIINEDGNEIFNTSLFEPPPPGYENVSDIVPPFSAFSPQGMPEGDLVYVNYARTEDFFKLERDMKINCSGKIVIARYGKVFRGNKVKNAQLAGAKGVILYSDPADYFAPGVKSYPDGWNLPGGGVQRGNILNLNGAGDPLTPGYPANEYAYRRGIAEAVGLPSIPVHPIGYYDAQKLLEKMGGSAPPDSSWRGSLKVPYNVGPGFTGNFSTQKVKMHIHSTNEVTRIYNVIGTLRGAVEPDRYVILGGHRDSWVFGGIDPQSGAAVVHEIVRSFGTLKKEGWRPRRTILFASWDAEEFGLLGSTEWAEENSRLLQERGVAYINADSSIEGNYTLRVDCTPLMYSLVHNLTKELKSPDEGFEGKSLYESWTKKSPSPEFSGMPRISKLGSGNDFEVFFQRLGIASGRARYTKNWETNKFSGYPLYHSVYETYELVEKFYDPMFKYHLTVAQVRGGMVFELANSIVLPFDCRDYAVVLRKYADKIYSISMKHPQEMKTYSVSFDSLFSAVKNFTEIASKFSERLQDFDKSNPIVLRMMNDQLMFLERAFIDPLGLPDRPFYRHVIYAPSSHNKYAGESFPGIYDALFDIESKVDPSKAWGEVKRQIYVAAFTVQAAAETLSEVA
Chain of FAP (Q12884 whole entry): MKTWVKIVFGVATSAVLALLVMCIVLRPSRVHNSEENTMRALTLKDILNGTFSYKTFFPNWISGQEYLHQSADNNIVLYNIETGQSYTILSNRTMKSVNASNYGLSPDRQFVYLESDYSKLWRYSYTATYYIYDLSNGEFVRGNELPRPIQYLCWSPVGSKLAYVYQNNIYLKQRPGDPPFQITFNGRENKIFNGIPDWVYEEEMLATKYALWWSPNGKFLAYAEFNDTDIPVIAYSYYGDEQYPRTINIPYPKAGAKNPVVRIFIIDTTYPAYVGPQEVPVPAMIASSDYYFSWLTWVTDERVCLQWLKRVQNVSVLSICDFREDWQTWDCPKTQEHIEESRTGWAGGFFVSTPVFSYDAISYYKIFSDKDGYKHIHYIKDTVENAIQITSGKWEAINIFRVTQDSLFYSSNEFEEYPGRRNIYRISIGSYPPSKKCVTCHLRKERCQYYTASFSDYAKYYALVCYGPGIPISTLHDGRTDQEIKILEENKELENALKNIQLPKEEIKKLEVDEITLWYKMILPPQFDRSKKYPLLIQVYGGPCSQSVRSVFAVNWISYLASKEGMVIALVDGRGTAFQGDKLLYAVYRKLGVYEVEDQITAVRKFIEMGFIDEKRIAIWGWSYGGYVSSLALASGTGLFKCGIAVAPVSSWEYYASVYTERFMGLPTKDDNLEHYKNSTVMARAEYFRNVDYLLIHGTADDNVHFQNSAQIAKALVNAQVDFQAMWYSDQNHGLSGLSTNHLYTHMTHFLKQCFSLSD
Chain of PREP (P48147 whole entry): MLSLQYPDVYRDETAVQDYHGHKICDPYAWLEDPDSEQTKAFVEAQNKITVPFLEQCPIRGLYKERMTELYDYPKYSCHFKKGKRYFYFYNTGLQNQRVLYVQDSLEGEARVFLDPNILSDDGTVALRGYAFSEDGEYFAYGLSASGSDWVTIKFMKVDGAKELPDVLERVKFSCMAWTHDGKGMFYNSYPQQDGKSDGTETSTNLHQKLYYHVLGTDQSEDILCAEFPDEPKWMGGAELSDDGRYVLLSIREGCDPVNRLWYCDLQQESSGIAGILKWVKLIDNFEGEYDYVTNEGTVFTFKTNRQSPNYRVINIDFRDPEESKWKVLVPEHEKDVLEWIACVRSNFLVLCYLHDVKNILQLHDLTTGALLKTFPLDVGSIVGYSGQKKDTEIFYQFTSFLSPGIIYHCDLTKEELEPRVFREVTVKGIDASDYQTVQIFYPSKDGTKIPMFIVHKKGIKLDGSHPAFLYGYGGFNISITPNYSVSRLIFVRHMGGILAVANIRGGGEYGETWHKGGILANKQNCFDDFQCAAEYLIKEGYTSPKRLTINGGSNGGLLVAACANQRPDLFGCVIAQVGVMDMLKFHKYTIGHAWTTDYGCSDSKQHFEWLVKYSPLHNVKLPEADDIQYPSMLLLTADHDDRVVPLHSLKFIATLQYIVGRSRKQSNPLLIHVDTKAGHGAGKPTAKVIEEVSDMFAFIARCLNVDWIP
Chain of DPPIV (P27487 whole entry): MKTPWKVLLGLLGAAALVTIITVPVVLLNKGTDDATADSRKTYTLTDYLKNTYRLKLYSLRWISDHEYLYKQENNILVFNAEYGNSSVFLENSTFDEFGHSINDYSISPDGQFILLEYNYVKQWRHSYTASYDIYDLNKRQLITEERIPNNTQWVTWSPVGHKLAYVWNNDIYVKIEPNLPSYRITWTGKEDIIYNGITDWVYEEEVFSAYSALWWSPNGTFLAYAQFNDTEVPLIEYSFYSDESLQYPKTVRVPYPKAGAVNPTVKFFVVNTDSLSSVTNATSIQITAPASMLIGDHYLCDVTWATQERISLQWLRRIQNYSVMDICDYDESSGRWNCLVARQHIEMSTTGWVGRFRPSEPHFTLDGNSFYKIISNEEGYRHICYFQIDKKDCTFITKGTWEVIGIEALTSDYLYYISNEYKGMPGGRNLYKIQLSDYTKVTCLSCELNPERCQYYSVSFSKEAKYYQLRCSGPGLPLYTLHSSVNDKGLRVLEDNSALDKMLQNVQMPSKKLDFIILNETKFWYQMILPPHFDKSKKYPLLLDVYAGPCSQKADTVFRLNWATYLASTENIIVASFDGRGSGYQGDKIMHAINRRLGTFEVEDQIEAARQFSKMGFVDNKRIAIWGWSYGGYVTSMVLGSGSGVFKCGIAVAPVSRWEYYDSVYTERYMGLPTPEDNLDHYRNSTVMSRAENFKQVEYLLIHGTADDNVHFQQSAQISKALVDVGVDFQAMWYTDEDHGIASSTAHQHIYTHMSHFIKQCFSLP

N#C[C@@H]1CCCN1C(=O)CNC(=O)c1ccnc2ccc(OCCCNC(=O)CCc3cn(CCOCCOCCOCCC(=O)N[C@@H](CCCCNC(=O)CN4CCN(CC(=O)O)CCN(CC(=O)O)CCN(CC(=O)O)CC4)C(=O)NCCCCC(=O)N(CCCC[C@H](NC(=O)N[C@@H](CCC(=O)O)C(=O)O)C(=O)O)Cc4ccc(Br)cc4)nn3)cc12 [SB-FAP-01, (14S,27S,31S)-22-(4-bromobenzyl)-1-(4-(3-((3-((4-((2-((S)-2-cyanopyrrolidin-1-yl)-2-oxoethyl)carbamoyl)quinolin-6-yl)oxy)propyl)amino)-3-oxopropyl)-1H-1,2,3-triazol-1-yl)-12,15,21,29-tetraoxo-14-(4-(2-(4,7,10-tris(carboxymethyl)-1,4,7,10-tetraazacyclododecan-1-yl)acetamido)butyl)-3,6,9-trioxa-13,16,22,28,30-pentaazatritriacontane-27,31,33-tricarboxylic acid]
Ki (FAP; 95% CI, read-out: FAP Binding affinity Ki (95% CI)): 0.25 to 0.51 nM | IC50 (FAP; Table 4): 1.79 nM | Ki (FAP; Table 4, read-out: FAP Ki): 0.36 nM | Ki (FAP; read-out: FAP Binding affinity Ki): 0.36 nM | Ki (PSMA; 95% CI, read-out: PSMA Binding affinity Ki (95% CI)): 7.3 to 37.9 nM | IC50 (PSMA; Table 4): 83.2 nM | Ki (PSMA; Table 4, read-out: PSMA Ki): 16.6 nM | Ki (PSMA; read-out: PSMA Binding affinity Ki): 16.6 nM | PET/CT tumor imaging (FAP+ HT-1080 tumors): able to image tumors derived from FAP+ HT-1080 human fibrosis cells engineered to overexpressed FAP, but not those which are not | IC50 (PREP): 350 nM | IC50 (DPPIV): 16900 nM
